# Reference: US10765114B2, “4-amino-6-(pyridyl and 2-substitutedphenyl)-picolinates and 6-amino-2-(pyridyl and 2-substitutedphenyl)-pyrimidine-4-carboxylates and their use as herbicides” (Dow AgroSciences LLC, priority 2013, dated 2020)
# System: Key Grass and Sedge Weeds as well as Grass Crops
# Test: Post-Emergent Test II (Table 6)
# Type: in vivo
# Conditions: post-emergence, 336 h, ZEAMX: maize, corn (Zea mays), 140 g ai/ha, 14 days after application, read-out: Visual Growth Reduction (%) 14 Days After Application ZEAMX
# Outline: (§1)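 Visual injury ratings (0 = no injury, 100 = complete kill) were taken 14 days after treatment relative to untreated plants. Seedlings at the first or second true leaf stage received an overhead spray at 187 L/ha, and solvent-blank sprayed plants served as controls.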
row,SMILES,pest or weed control at 140 g/ha [%]
1,"Nc1c(F)c(-c2ccc(C(F)F)nc2)nc(C(=O)O)c1Cl [Compound 27, 4-amino-5-chloro-6′-(difluoromethyl)-3-fluoro-[2,3′-bipyridine]-6-carboxylic acid]",75 to 84

# System: Key Broadleaf Weed and Crop Species
# Test: Post-Emergent Test II (Table 5)
# Type: in vivo
# Conditions: Abutilon theophrasti, post-emergence, 336 h, ABUTH: velvetleaf (Abutilon theophrasti), application rate 70 (kg ai/ha; footnote: g ai/ha), read-out: Visual Growth Reduction (%) 14 Days After Application ABUTH
# Outline: as §1
row,SMILES,pest or weed control at 70 g/ha [%]
1,"Nc1c(F)c(-c2ccc(C(F)F)nc2)nc(C(=O)O)c1Cl [Compound 27, 4-amino-5-chloro-6′-(difluoromethyl)-3-fluoro-[2,3′-bipyridine]-6-carboxylic acid]",85 to 94

# Same assay, conditions: Abutilon theophrasti, post-emergence, 336 h, ABUTH: velvetleaf (Abutilon theophrasti), application rate 140 (kg ai/ha; footnote: g ai/ha), read-out: Visual Growth Reduction (%) 14 Days After Application ABUTH
row,SMILES,pest or weed control at 140 g/ha [%]
1,"Nc1c(F)c(-c2ccc(C(F)F)nc2)nc(C(=O)O)c1Cl [Compound 27, 4-amino-5-chloro-6′-(difluoromethyl)-3-fluoro-[2,3′-bipyridine]-6-carboxylic acid]",95 to 100

# Same assay, conditions: Amaranthus retroflexus, post-emergence, 336 h, AMARE: redroot pigweed (Amaranthus retroflexus), application rate 70 (kg ai/ha; footnote: g ai/ha), read-out: Visual Growth Reduction (%) 14 Days After Application AMARE
row,SMILES,pest or weed control at 70 g/ha [%]
1,"Nc1c(F)c(-c2ccc(C(F)F)nc2)nc(C(=O)O)c1Cl [Compound 27, 4-amino-5-chloro-6′-(difluoromethyl)-3-fluoro-[2,3′-bipyridine]-6-carboxylic acid]",95 to 100

# Same assay, conditions: Amaranthus retroflexus, post-emergence, 336 h, AMARE: redroot pigweed (Amaranthus retroflexus), application rate 140 (kg ai/ha; footnote: g ai/ha), read-out: Visual Growth Reduction (%) 14 Days After Application AMARE
row,SMILES,pest or weed control at 140 g/ha [%]
1,"Nc1c(F)c(-c2ccc(C(F)F)nc2)nc(C(=O)O)c1Cl [Compound 27, 4-amino-5-chloro-6′-(difluoromethyl)-3-fluoro-[2,3′-bipyridine]-6-carboxylic acid]",95 to 100

# Same assay, conditions: Brassica napus, post-emergence, 336 h, BRSSS: oilseed rape, canola (Brassica napus), application rate 70 (kg ai/ha; footnote: g ai/ha), read-out: Visual Growth Reduction (%) 14 Days After Application BRSSS
row,SMILES,pest or weed control at 70 g/ha [%]
1,"Nc1c(F)c(-c2ccc(C(F)F)nc2)nc(C(=O)O)c1Cl [Compound 27, 4-amino-5-chloro-6′-(difluoromethyl)-3-fluoro-[2,3′-bipyridine]-6-carboxylic acid]",85 to 94

# Same assay, conditions: Brassica napus, post-emergence, 336 h, BRSSS: oilseed rape, canola (Brassica napus), application rate 140 (kg ai/ha; footnote: g ai/ha), read-out: Visual Growth Reduction (%) 14 Days After Application BRSSS
row,SMILES,pest or weed control at 140 g/ha [%]
1,"Nc1c(F)c(-c2ccc(C(F)F)nc2)nc(C(=O)O)c1Cl [Compound 27, 4-amino-5-chloro-6′-(difluoromethyl)-3-fluoro-[2,3′-bipyridine]-6-carboxylic acid]",85 to 94

# Same assay, conditions: Chenopodium album, post-emergence, 336 h, CHEAL: lambsquarters (Chenopodium album), application rate 70 (kg ai/ha; footnote: g ai/ha), read-out: Visual Growth Reduction (%) 14 Days After Application CHEAL
row,SMILES,pest or weed control at 70 g/ha [%]
1,"Nc1c(F)c(-c2ccc(C(F)F)nc2)nc(C(=O)O)c1Cl [Compound 27, 4-amino-5-chloro-6′-(difluoromethyl)-3-fluoro-[2,3′-bipyridine]-6-carboxylic acid]",95 to 100

# Same assay, conditions: Chenopodium album, post-emergence, 336 h, CHEAL: lambsquarters (Chenopodium album), application rate 140 (kg ai/ha; footnote: g ai/ha), read-out: Visual Growth Reduction (%) 14 Days After Application CHEAL
row,SMILES,pest or weed control at 140 g/ha [%]
1,"Nc1c(F)c(-c2ccc(C(F)F)nc2)nc(C(=O)O)c1Cl [Compound 27, 4-amino-5-chloro-6′-(difluoromethyl)-3-fluoro-[2,3′-bipyridine]-6-carboxylic acid]",95 to 100

# Same assay, conditions: Euphorbia heterophylla, post-emergence, 336 h, EPHHL: wild poinsettia (Euphorbia heterophylla), application rate 70 (kg ai/ha; footnote: g ai/ha), read-out: Visual Growth Reduction (%) 14 Days After Application EPHHL
row,SMILES,pest or weed control at 70 g/ha [%]
1,"Nc1c(F)c(-c2ccc(C(F)F)nc2)nc(C(=O)O)c1Cl [Compound 27, 4-amino-5-chloro-6′-(difluoromethyl)-3-fluoro-[2,3′-bipyridine]-6-carboxylic acid]",95 to 100

# Same assay, conditions: Euphorbia heterophylla, post-emergence, 336 h, EPHHL: wild poinsettia (Euphorbia heterophylla), application rate 140 (kg ai/ha; footnote: g ai/ha), read-out: Visual Growth Reduction (%) 14 Days After Application EPHHL
row,SMILES,pest or weed control at 140 g/ha [%]
1,"Nc1c(F)c(-c2ccc(C(F)F)nc2)nc(C(=O)O)c1Cl [Compound 27, 4-amino-5-chloro-6′-(difluoromethyl)-3-fluoro-[2,3′-bipyridine]-6-carboxylic acid]",95 to 100

# Same assay, conditions: Helianthus annuus, post-emergence, 336 h, HELAN: sunflower (Helianthus annuus), application rate 70 (kg ai/ha; footnote: g ai/ha), read-out: Visual Growth Reduction (%) 14 Days After Application HELAN
row,SMILES,pest or weed control at 70 g/ha [%]
1,"Nc1c(F)c(-c2ccc(C(F)F)nc2)nc(C(=O)O)c1Cl [Compound 27, 4-amino-5-chloro-6′-(difluoromethyl)-3-fluoro-[2,3′-bipyridine]-6-carboxylic acid]",95 to 100

# Same assay, conditions: Helianthus annuus, post-emergence, 336 h, HELAN: sunflower (Helianthus annuus), application rate 140 (kg ai/ha; footnote: g ai/ha), read-out: Visual Growth Reduction (%) 14 Days After Application HELAN
row,SMILES,pest or weed control at 140 g/ha [%]
1,"Nc1c(F)c(-c2ccc(C(F)F)nc2)nc(C(=O)O)c1Cl [Compound 27, 4-amino-5-chloro-6′-(difluoromethyl)-3-fluoro-[2,3′-bipyridine]-6-carboxylic acid]",95 to 100

# Same assay, conditions: Viola tricolor, post-emergence, 336 h, VIOTR: wild pansy (Viola tricolor), application rate 70 (kg ai/ha; footnote: g ai/ha), read-out: Visual Growth Reduction (%) 14 Days After Application VIOTR
row,SMILES,pest or weed control at 70 g/ha [%]
1,"Nc1c(F)c(-c2ccc(C(F)F)nc2)nc(C(=O)O)c1Cl [Compound 27, 4-amino-5-chloro-6′-(difluoromethyl)-3-fluoro-[2,3′-bipyridine]-6-carboxylic acid]",60 to 74

# Same assay, conditions: Viola tricolor, post-emergence, 336 h, VIOTR: wild pansy (Viola tricolor), application rate 140 (kg ai/ha; footnote: g ai/ha), read-out: Visual Growth Reduction (%) 14 Days After Application VIOTR
row,SMILES,pest or weed control at 140 g/ha [%]
1,"Nc1c(F)c(-c2ccc(C(F)F)nc2)nc(C(=O)O)c1Cl [Compound 27, 4-amino-5-chloro-6′-(difluoromethyl)-3-fluoro-[2,3′-bipyridine]-6-carboxylic acid]",60 to 74

# System: not given
# Test: not given
# Conditions: not given
row,melting point [°C],SMILES
1,167 to 169,"Nc1c(F)c(-c2ccc(C(F)F)nc2)nc(C(=O)O)c1Cl [Compound 27, 4-amino-5-chloro-6′-(difluoromethyl)-3-fluoro-[2,3′-bipyridine]-6-carboxylic acid]"
